Measured values as given in US20110244506A1, “EGFR DEPENDENT MODULATION OF CHEMOKINE EXPRESSION AND INFLUENCE ON THERAPY AND DIAGNOSIS OF TUMORS AND SIDE EFFECTS THEREOF” (Merck Patent GmbH, priority 2005, published 2011).

Columns and labels:
RANTES, A431 = assay: Secreted RANTES levels in A431 (Luminex); assay type: cell-based; details: A431, with or without TGFa or TNFa, 24 h, supernatant
Method: (§1) Tumor cells were treated with anti-EGFR agents and this was followed by treatment with or without TGF alpha or TNF alpha. Secreted chemokines were evaluated in conditioned medium of tumor cells obtained after 24 h. Evaluation was carried out with the Luminex bead technology.
(§2) After 24 h, cellular supernatants were collected and levels of RANTES were quantified using the Luminex technology.

STAT3 = assay: Western blotting of STAT3 phosphorylation in keratinocytes; assay type: cell-based; details: with or without TGFa or TNFa, 24 h
Method: (§3) In these experiments keratinocytes were treated with different concentrations of anti-EGFR inhibitors followed by treatment with or without TGF alpha or TNF alpha for, approximately, 24 h. Effects of anti-EGFR inhibitors were evaluated using Western blotting.
(§4) After 24 h, cells were lysed and analysed by Western blotting.

RANTES, keratinocytes = assay: Secreted RANTES levels in keratinocytes (Luminex); assay type: cell-based; details: with or without TGFa or TNFa, 24 h, supernatant
Method: (§5) Evaluations were carried out with the Luminex bead technology. In these experiments keratinocytes were treated with anti-EGFR inihibitors followed by treatment with or without TGF alpha or TNF alpha.
as §2

IL-8, A431 = assay: Secreted IL-8 levels in A431 (Luminex); assay type: cell-based; details: for secreted IL-8 levels: A431, with or without TGFa or TNFa, 24 h, supernatant
Method: as §1
(§6) After 24 h, cellular supernatants were collected and levels of IL-8 were quantified using the Luminex technology.
(§7) Cells were treated with 100 ng/ml Cmab or Mmab and stimulated with 100 ng/ml TGFa; number of experiments=1

COX-2 = assay: Western blotting of COX-2 protein in keratinocytes; assay type: cell-based; details: with or without TGFa or TNFa, 24 h
Method: as §3, §4

ERK1/2 (Thr 202/204) = assay: Western blotting of ERK1/2 phosphorylation in keratinocytes; details: with or without TGFa or TNFa, 24 h
IP-10, keratinocytes = assay: Secreted IP-10 levels in keratinocytes (Luminex); assay type: cell-based; details: with or without TGFa or TNFa, 24 h, supernatant
Method: as §5
(§8) After 24 h, cellular supernatants were collected and levels of IP-10 were quantified using the Luminex technology.

IP-10, A431 = assay: Secreted IP-10 levels in A431 (Luminex); assay type: cell-based; details: A431, with or without TGFa or TNFa, 24 h, supernatant
Method: as §1, §8

IL-8, keratinocytes = assay: Secreted IL-8 levels in keratinocytes (Luminex); assay type: cell-based; details: with or without TGFa or TNFa, 24 h, supernatant
Method: as §5, §6

IL-8, HT29 = assay: Secreted IL-8 levels in HT29 (Luminex); assay type: cell-based; details: 100 ng/ml antibody, stimulated with 100 ng/ml TGFa, number of experiments=1
Method: as §6, §7

IL-8, DiFi = assay: Secreted IL-8 levels in DiFi (Luminex); assay type: cell-based; details: 100 ng/ml antibody, stimulated with 100 ng/ml TGFa, number of experiments=1
Method: as §6, §7

[1] = tested on: IL-8, tumor cell lines (DiFi, HT29, A431, MCF-7, PC-3 and U87 MG); assay: Secreted IL-8 levels in different tumor cell lines (Luminex); assay type: cell-based; details: stimulated with TGFa, 24 h
Method: as §6

IL-8, PC-3 = assay: Secreted IL-8 levels in PC-3 (Luminex); assay type: cell-based; details: 100 ng/ml antibody, stimulated with 100 ng/ml TGFa, number of experiments=1
Method: as §6, §7

EGFR (Tyr 1068) = EGFR (Tyr 1068) (Homo sapiens, UniProt P00533); assay: Western blotting of EGFR phosphorylation in keratinocytes; details: with or without TGFa or TNFa, 24 h
[2] = tested on: EGFR-dependent signaling cascades, tumor cell lines such as A431; assay: EGFR-dependent signaling cascades in tumor cell lines; assay type: cell-based; details: various tumor cell lines such as A431
IL-8, MCF-7 = assay: Secreted IL-8 levels in MCF-7 (Luminex); assay type: cell-based; details: 100 ng/ml antibody, stimulated with 100 ng/ml TGFa, number of experiments=1
Method: as §6, §7

IL-8, U87MG = assay: Secreted IL-8 levels in U87MG (Luminex); assay type: cell-based; details: 100 ng/ml antibody, stimulated with 100 ng/ml TGFa, number of experiments=1
Method: as §6, §7

## COc1cc2ncnc(Nc3ccc(F)c(Cl)c3)c2cc1OCCCN1CCOCC1 [Iressa, gefitinib, reference compound]
RANTES, A431
  secreted RANTES levels: up-regulated RANTES in a dose-dependent manner
STAT3
  phosphorylation of STAT3: prevented phosphorylation of STAT3
RANTES, keratinocytes
  secreted RANTES levels: up-regulated RANTES in a dose-dependent manner
IL-8, A431
  secreted IL-8 levels: down-regulated IL-8 in a dose-dependent manner
COX-2
  expression of COX-2: induced expression of COX-2
ERK1/2 (Thr 202/204)
  phosphorylation of ERK1/2 (Thr 202/204): prevented phosphorylation
IP-10, keratinocytes
  secreted IP-10 levels: up-regulated IP-10 in a dose-dependent manner
IP-10, A431
  secreted IP-10 levels: up-regulated IP-10 in a dose-dependent manner
IL-8, keratinocytes
  secreted IL-8 levels: down-regulated IL-8 in a dose-dependent manner

## Matuzumab: humanized monoclonal antibody 425 directed to the EGF receptor
RANTES, A431
  secreted RANTES levels: up-regulated RANTES in a dose-dependent manner
IL-8, HT29
  IL-8 levels: 30 % control
IL-8, DiFi
  IL-8 levels: 28 % control
[1]
  secreted IL-8 levels: down-regulated IL-8 in all tumor cell lines investigated in a dose-dependent manner
STAT3
  phosphorylation of STAT3: prevented phosphorylation of STAT3
RANTES, keratinocytes
  secreted RANTES levels: up-regulated RANTES in a dose-dependent manner
IL-8, A431
  secreted IL-8 levels: down-regulated IL-8 in a dose-dependent manner
IL-8, A431; A431, 100 ng/ml antibody, stimulated with 100 ng/ml TGFa, number of experiments=1
  IL-8 levels: 15 % control
IL-8, PC-3
  IL-8 levels: 76 % control
COX-2
  expression of COX-2: induced expression of COX-2
EGFR (Tyr 1068)
  phosphorylation of EGFR (Tyr 1068): prevented phosphorylation
ERK1/2 (Thr 202/204)
  phosphorylation of ERK1/2 (Thr 202/204): prevented phosphorylation
IP-10, keratinocytes
  secreted IP-10 levels: up-regulated IP-10 in a dose-dependent manner
IP-10, A431
  secreted IP-10 levels: up-regulated IP-10 in a dose-dependent manner
[2]
  EGFR-dependent signaling cascades: interferes with EGFR-dependent signaling cascades
IL-8, MCF-7
  IL-8 levels: 49 % control
IL-8, U87MG
  IL-8 levels: 58 % control
IL-8, keratinocytes
  secreted IL-8 levels: down-regulated IL-8 in a dose-dependent manner
